Results taken from patent US20220259215A1, “PYRROLOPYRAZOLE DERIVATIVES, PREPARATION METHOD THEREOF AND APPLICATION THEREOF IN MEDICINE” (SHANGHAI MEDICILON INC., priority 2019, published 2022).

The compounds below were run against T1, H+/K+ATPase (Oryctolagus cuniculus, UniProt P27112) (assay: Determination of compounds' inhibition of H+/K+ATPase enzyme activity (malachite green, OD 620 nm)). Conditions: H+/K+ATPase extracted from rabbit stomach mucosa; 500 μM ATP, pH 6.5, 37° C.
T1 construct: The stomach tissue of the rabbit was separated; from tissue; host or cells: rabbit stomach (fundus mucosa), membrane fraction obtained by differential and Ficoll centrifugation
Format: biochemical
Text: Test Example: Determination of Compounds' Inhibition of H+/K+ATPase Enzyme Activity
The following experiment is used to determine the inhibitory effect of the compound of the present invention on the H+/K+ATPase enzyme activity.
1. Experimental materials
Plate reader: SpectraMax M5(MD).
Malachite Green (Sigma Aldrich, 213020-25G).
Ammonium molybdate (Sigma Aldrich, 277908-20G).
ATP (Sigma Aldrich, A1852-1VL).
Enzyme working solution: titrating the enzyme, diluting the enzyme with buffer solution 1, and taking 5 μl of the diluted solution into 50 μl reaction system.
ATP solution: 100 mM ATP was diluted to 5 mM with no K+ buffer, and 5 μl of the diluted solution was added to the 50 μl reaction system, that is, the final concentration of ATP was 500 μM.
MLG color development liquid: 0.12% MLG, 7.5% ammonium molybdate, 11% Tween-20 was mixed as 100:25:2, and adding 15 μl of the mixture into each well during detection.
Buffer 1: 50 mM Tris-HCl pH 6.5, 5 mM magnesium chloride (magnesium chloride), 10 μM valinomycin (valinomycin).
Buffer 2: 50 mM Tris-HCl pH 6.5, 5 mM magnesium chloride (magnesium chloride), 10 μM valinomycin (valinomycin), 20 mM KCl.
Homogenization buffer: 10 mmol/L Tris-HCl, pH 6.8, 0.25M sucrose (sucrose), 1 mmol/LEDTA.
7.5% Ficoll layering solution: homogenization buffer+7.5% (W/W) (Ficoll 400).
3.1.H^+/K^+ATPase enzyme extraction
(1) The stomach tissue of the rabbit was separated, and the blood was washed with tap water, food residue.
(2) The fundus portion was thoroughly washed with pre-cooled NaCl solution to remove surface mucus.
(3) The stripped mucosa was filled into a sample bag or a 50 ml centrifuge tube, and quickly freezing in a liquid nitrogen tank.
(4) The tissue was removed, minced with surgical scissors, and a pre-cooled homogenization buffer (4 ml/g tissue) was added and homogenized in a tissue homogenizer for 2 to 10 minutes.
(5) After homogenization, if there were larger tissue particles, they could be removed by centrifugation (600 g, 10 min), and then the supernatant was transfered to a clean centrifuge tube. After centrifugation at 20000 g for 30 minutes, then the supernatant was transferred to a clean centrifuge tube at 100000 g for 90 minutes, and the precipitate was collected.
(6) Resuspending the precipitate with homogenization buffer, blowing uniformly, adding 7.5% Ficoll layering solution at equal ratio, centrifuging at 100000 g for 90 minutes, and collecting the precipitate.
(7) Resuspending the precipitate with homogenization buffer, blowing uniformly, and the protein concentration was measured by Bradford. Freezing in tubes at −80° C. for later use.
3.2. H+/K+ATPase activity experiment
(1) Adding 35 μl of reaction buffer to each experimental well, and then adding 35 μl of buffer 1.
(2) Adding 5 μl buffer 1 containing 10% DMSO to the whole enzyme and buffer well.
(3) Adding 5 μl of 10× compound working solution to the compound well and mixing well.
(4) Adding 5 μl of buffer 1 to the buffer well.
(5) Adding 5 μl of 10× enzyme working solution to the remaining wells, mixing and incubating at 37° C. for 30 minutes.
(6) Adding 5 μl of 10× ATP working solution to all experimental wells, mixing and incubating at 37° C. for 20 min.
(7) Adding 15 μl MLG chromogenic solution to all experimental wells, and uniformly mixing and incubating at room temperature for 5-30 min.
(8) The reading number of 620 nm was detected by an M5 instrument.
The inhibition rate is calculated with the following formula:
Inhibition rate (IC50)=[OD (sample well)-OD (full enzyme well containing potassium chloride)]/[(OD (full enzyme well containing potassium chloride)−(OD (full enzyme well without potassium chloride)]×100%

T1 sequence (P27112 whole entry): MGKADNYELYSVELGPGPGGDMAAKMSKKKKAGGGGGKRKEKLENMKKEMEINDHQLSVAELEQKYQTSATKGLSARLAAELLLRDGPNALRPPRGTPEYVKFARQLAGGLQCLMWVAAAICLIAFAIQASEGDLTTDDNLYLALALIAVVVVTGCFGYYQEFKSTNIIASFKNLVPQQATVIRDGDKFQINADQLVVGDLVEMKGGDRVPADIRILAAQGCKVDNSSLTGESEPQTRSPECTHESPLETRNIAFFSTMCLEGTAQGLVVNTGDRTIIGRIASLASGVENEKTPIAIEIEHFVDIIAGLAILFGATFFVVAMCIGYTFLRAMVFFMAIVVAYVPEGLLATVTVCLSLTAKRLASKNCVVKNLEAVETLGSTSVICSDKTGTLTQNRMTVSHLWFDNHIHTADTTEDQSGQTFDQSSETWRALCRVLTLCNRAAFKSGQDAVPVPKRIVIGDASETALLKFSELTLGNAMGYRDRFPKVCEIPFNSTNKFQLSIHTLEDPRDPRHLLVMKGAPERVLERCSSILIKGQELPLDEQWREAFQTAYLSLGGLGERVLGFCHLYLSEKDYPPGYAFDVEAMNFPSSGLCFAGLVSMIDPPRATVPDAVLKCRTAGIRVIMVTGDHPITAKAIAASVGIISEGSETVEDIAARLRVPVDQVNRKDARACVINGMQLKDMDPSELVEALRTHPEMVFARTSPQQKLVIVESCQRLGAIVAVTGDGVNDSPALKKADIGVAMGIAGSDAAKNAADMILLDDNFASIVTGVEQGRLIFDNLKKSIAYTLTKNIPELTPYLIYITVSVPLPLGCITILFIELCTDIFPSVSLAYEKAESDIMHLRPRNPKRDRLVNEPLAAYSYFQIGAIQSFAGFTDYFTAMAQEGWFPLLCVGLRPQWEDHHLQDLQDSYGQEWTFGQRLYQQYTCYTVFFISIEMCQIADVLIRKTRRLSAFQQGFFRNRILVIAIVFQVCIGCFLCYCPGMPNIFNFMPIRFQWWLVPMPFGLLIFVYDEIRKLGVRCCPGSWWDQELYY
T1 sequence (P18597 whole entry partner): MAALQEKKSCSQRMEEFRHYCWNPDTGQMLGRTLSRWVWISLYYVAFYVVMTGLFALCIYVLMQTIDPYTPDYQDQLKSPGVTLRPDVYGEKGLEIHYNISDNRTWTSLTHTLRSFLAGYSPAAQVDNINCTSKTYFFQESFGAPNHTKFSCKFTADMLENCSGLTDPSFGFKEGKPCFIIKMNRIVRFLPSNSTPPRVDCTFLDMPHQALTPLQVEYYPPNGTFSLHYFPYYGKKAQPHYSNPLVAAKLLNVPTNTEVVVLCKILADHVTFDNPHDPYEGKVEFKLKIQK

**Q.** For `CN1Cc2nn(Cc3cccc(Nc4cc[nH]c(=O)n4)c3)c(-c3ccccc3F)c2C1` [Example 4, 4-((3-((3-(2-fluorophenyl)-5-methyl-5,6-dihydropyrrolo[3,4-c]pyrazol-2(4H)-yl)methyl)phenyl)amino)pyrimidin-2-(1H)-one], which IC50 is on record?
**A.** The IC50 was 729 nM.

**Q.** How did the IC50 turn out when `CNc1nccc(Nc2cccc(Cn3nc4c(c3-c3ccccc3F)CN(C)C4)c2)n1` [Example 5, N4-(3-((3-(2-fluorophenyl)-5-methyl-5,6-dihydropyrrolo[3,4-c]pyrazol-2(4H)-yl)methyl)phenyl)-N2-methylpyrimidine-2,4-diamine] was run?
**A.** The IC50 was 279 nM.

**Q.** Which IC50 does the source give for `COc1ccc(Nc2cccc(Cn3nc4c(c3-c3ccccc3F)CN(C)C4)c2)c(Cl)n1` [Example 1, 2-chloro-N-(3-((3-(2-fluorophenyl)-5-methyl-5,6-dihydropyrrolo[3,4-c]pyrazol-2(4H)-yl)methyl)phenyl)-6-methoxypyridin-3-amine] here?
**A.** The IC50 was 415 nM.

**Q.** How did the IC50 turn out when `CN1Cc2nn(Cc3cccc(Nc4cncc(Cl)n4)c3)c(-c3ccccc3F)c2C1` [Example 7, 6-chloro-N-(3-((3-(2-fluorophenyl)-5-methyl-5,6-dihydropyrrolo[3,4-c]pyrazol-2(4H)-yl)methyl)phenyl)pyrazin-2-amine] was run?
**A.** Its IC50 is 325 nM.

**Q.** `CN1Cc2nn(Cc3cccc(Nc4ccnc(Cl)n4)c3)c(-c3ccccc3F)c2C1` [Example 3, 2-chloro-N-(3-((3-(2-fluorophenyl)-5-methyl-5,6-dihydropyrrolo[3,4-c]pyrazol-2(4H)-yl)methyl)phenyl) pyrimidin-4-amine] was tested. Which IC50 did it give?
**A.** Its IC50 is 966 nM.

**Q.** Which IC50 does the source give for `Cc1ccc(Nc2cccc(Cn3nc4c(c3-c3ccccc3F)CN(C)C4)c2)c(Cl)n1` [Example 2, 2-chloro-N-(3-((3-(2-fluorophenyl)-5-methyl-5,6-dihydropyrrolo[3,4-c]pyrazol-2(4H)-yl)methyl)phenyl)-6-methylpyridin-3-amine] here?
**A.** The IC50 was 669 nM.

**Q.** `CN1Cc2nn(Cc3cccc(Nc4ccnc(N5CCOCC5)n4)c3)c(-c3ccccc3F)c2C1` [Example 6, N-(3-((3-(2-fluorophenyl)-5-methyl-5,6-dihydropyrrolo[3,4-c]pyrazol-2(4H)-yl)methyl)phenyl)-2-morpholinopyrimidin-4-amine] was tested. Which IC50 did it give?
**A.** Its IC50 is 2850 nM.
